# Article PMC8839658, “Design and Activity of Novel Oxadiazole Based Compounds That Target Poly(ADP-ribose) Polymerase” (Molecules, 2022)
# System: MCF-7 cells
# Experiment: MCF-7 cell viability assay (Alamar Blue)
# Type: cell-based, human
# Conditions: Homo sapiens, MCF7, 72 h, MCF-7, 72 h, Alamar Blue; read-out: IC50, cell viability of MCF-7 cells
# Method: Initially, the newly synthesized oxadiazoles were examined in cell viability studies in human breast cancer (MCF-7) cells using Alamar Blue assays.
# MCF-7 and MDA-MB-231 (2000) cells were cultured in MEM or Leibovitz’s L-15 medium enriched with 2% FBS and maintained in a humidified atmosphere of 5% CO2 at 37 °C [44]. DMSO dissolved compounds were kept as a stock solution, and diluted with a cell culture medium to the desired concentration. Cancer cells (4 × 10^3) were grown overnight in 96-well plates, cultured, and treated with oxadiazoles or Olaparib at 0, 0.01, 0.1, 10, 100, and 1000 µM concentrations for 72 h. The inhibitory effect of the compounds was assessed using Alamar Blue reagent.
# MCF-7 and MDA-MB-231 were treated with 5u, 5s and Olaparib (0, 0.01, 0.1, 1, 10, 100 µM) for 72 h, respectively. The viability of MCF-7 (A) and MDA-MB-231 cells (B) were analyzed using a microplate reader to measure the fluorescence of Alamar Blue reagent (excitation wavelength is between 530–560 nm and emission wavelength is 590 nm). The results are means of triplicate determinations.
row,IC50 [µM],Structure (SMILES)
1,85.3,O=Cc1cccc(-c2cccc(-c3nnc(-c4ccc5c(c4)OCCO5)o3)c2)c1 [C00021]
2,161,O=C(NC1CCCC1)c1cccc(-c2cccc(-c3nnc(-c4ccc5c(c4)OCCO5)o3)c2)c1 [C00006]
3,21.8,"COc1ccc(Cc2nnc(-c3cccc(-c4cncnc4)c3)o2)cc1OC [compound 5h, 2-(3,4-Dimethoxybenzyl)-5-(3-(pyrimidin-5-yl)phenyl)-1,3,4-oxadiazole]"
4,33.2,COc1ccc(Cc2nnc(-c3cccc(-c4cncc(C)c4C)c3)o2)cc1OC [C00009]
5,27.1,"COc1ccc(Cc2nnc(-c3cccc(-c4cccnc4)c3)o2)cc1OC [compound 5m, 2-(3,4-Dimethoxybenzyl)-5-(3-(pyridin-3-yl)phenyl)-1,3,4-oxadiazole]"
6,84,Cc1cc(-c2cccc(-c3nnc(-c4ccc5c(c4)OCCO5)o3)c2)cnc1F [C00022]
7,43.5,c1cc(-c2cncnc2)cc(-c2nnc(-c3ccc4c(c3)OCCO4)o2)c1 [C00007]
8,> 100,COc1ccc(Cc2nnc(-c3cccc(-c4ccc(C(C)=O)s4)c3)o2)cc1OC [C00025]
9,74.8,c1cc(-c2nnc(-c3ccc4c(c3)OCCO4)o2)cc(-c2cccc3ccccc23)c1 [C00010]
10,0.24,"COc1cccc2c1C(=O)c1c(O)c3c(c(O)c1C2=O)C[C@@](O)(C(=O)CO)C[C@@H]3O[C@H]1C[C@H](N)[C@H](O)[C@H](C)O1 [Doxorubicin, reference compound]"
11,23.1,"COc1ccc(Cc2nnc(-c3cccc(-c4ccc(C(C)=O)s4)c3)o2)cc1 [compound 5w, 1-(5-(3-(5-(4-Methoxybenzyl)-1,3,4-oxadiazol-2-yl)phenyl)thiophen-2-yl)ethanone]"
12,18.4,"COc1ccc(Cc2nnc(-c3cccc(-c4cnc(F)c(C)c4)c3)o2)cc1OC [compound 5p, 2-(3,4-Dimethoxybenzyl)-5-(3-(6-fluoro-5-methylpyridin-3-yl)phenyl)-1,3,4-oxadiazole]"
13,41.2,COc1ccc(Cc2nnc(-c3cccc(-c4cnc(F)c(C)c4)c3)o2)cc1 [C00018]
14,160,Cc1cc(-c2cccc(-c3nnc(-c4ccc5c(c4)OCCO5)o3)c2)cnc1Cl [C00002]
15,> 100,c1cc(-c2ccncc2)cc(-c2nnc(-c3ccc4c(c3)OCCO4)o2)c1 [C00012]
16,205,FC(F)(F)c1ccc(-c2cccc(-c3nnc(-c4ccc5c(c4)OCCO5)o3)c2)cc1 [C00004]
17,345,COc1cccc(-c2cccc(-c3nnc(-c4ccc5c(c4)OCCO5)o3)c2)c1 [C00008]
18,25,"COc1ccc(Cc2nnc(-c3cccc(-c4ccnc(F)c4C)c3)o2)cc1 [compound 5r, 2-(3-(2-Fluoro-3-methylpyridin-4-yl)phenyl)-5-(4-methoxybenzyl)-1,3,4-oxadiazole]"
19,30.9,COc1ccc(Cc2nnc(-c3cccc(-c4cccnc4)c3)o2)cc1 [C00013]
20,76.4,Cc1cncc(-c2cccc(-c3nnc(-c4ccc5c(c4)OCCO5)o3)c2)c1C [C00011]
21,265,Cc1c(-c2cccc(-c3nnc(-c4ccc5c(c4)OCCO5)o3)c2)ccnc1F [C00017]
22,31.5,COc1ccc(Cc2nnc(-c3cccc(-c4cncnc4)c3)o2)cc1 [C00003]
23,182,c1cncc(-c2cccc(-c3nnc(-c4ccc5c(c4)OCCO5)o3)c2)c1 [C00016]

# Same assay, conditions: MCF-7, 72 h, Alamar Blue; read-out: IC50, cell viability of MCF-7 cells
row,IC50 [µM],Structure (SMILES)
1,18.4,COc1ccc(Cc2nnc(-c3cccc(-c4cnc(F)c(C)c4)c3)o2)cc1OC [C00020]
2,21.9,COc1ccc(Cc2nnc(-c3cccc(-c4cncnc4)c3)o2)cc1OC [C00005]
3,15.3,COc1ccc(Cc2nnc(-c3cccc(-c4ccnc(F)c4C)c3)o2)cc1OC [C00015]
4,23.1,COc1ccc(Cc2nnc(-c3cccc(-c4ccc(C(C)=O)s4)c3)o2)cc1 [C00023]
5,25,COc1ccc(Cc2nnc(-c3cccc(-c4ccnc(F)c4C)c3)o2)cc1 [C00024]
6,1.45,COc1ccc(Cc2nnc(-c3cccc(-c4cccc(C=O)c4)c3)o2)cc1 [C00019]
7,27.1,COc1ccc(Cc2nnc(-c3cccc(-c4cccnc4)c3)o2)cc1OC [C00014]

# Target: T1, recombinant human PARP enzyme (PARP1) (Homo sapiens, UniProt P09874)
# T1 construct: purchased R&D Systems Ltd., Abingdon, UK 4677-096-K
# Experiment: PARP activity, PARP/Apoptosis Universal Colorimetric Assay Kit
# Type: biochemical
# Conditions: 0.01 µM, n = 3
# Method: PARP activity was measured using the PARP/Apoptosis Universal Colorimetric Assay Kit (4677-096-K, R&D Systems Ltd., Abingdon, UK). The enzyme inhibition assay uses the histone proteins immobilized 96-well plate, which measures the incorporation of ADP-ribose (biotin-tagged), followed by detection using streptavidin-conjugated horse-radish peroxidase, and finally the color development after the addition of substrate. Oxadiazoles were incubated with the recombinant human PARP enzyme prior to detection.
# T1 sequence (P09874 whole entry): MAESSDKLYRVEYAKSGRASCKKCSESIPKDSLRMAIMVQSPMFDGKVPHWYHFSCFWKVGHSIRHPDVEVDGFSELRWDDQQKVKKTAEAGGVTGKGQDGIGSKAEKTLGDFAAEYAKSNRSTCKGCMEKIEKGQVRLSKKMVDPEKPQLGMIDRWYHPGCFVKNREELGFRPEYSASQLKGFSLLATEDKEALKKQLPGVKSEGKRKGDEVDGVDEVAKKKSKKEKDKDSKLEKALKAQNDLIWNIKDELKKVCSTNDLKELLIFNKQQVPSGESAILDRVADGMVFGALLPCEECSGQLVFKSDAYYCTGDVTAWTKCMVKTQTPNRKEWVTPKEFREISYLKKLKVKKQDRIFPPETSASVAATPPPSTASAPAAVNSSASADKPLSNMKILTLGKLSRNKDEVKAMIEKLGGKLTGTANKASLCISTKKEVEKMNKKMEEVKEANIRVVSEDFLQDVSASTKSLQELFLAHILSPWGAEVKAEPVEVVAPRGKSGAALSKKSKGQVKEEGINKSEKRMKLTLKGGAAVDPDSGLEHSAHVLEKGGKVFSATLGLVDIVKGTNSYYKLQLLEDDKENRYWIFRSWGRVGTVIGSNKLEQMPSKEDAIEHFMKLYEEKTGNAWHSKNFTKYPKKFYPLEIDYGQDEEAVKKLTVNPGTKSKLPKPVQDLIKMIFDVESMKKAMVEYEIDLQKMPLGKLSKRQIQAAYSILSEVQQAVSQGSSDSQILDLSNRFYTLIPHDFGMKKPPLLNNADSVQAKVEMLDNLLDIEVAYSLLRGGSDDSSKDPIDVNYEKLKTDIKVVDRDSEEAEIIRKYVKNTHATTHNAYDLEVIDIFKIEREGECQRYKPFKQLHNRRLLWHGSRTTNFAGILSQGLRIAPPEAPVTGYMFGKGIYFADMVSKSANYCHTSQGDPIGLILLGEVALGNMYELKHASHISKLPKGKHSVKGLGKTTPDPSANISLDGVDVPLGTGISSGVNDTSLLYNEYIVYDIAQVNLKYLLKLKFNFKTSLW
row,inhibition at 0.01 µM [%],Structure (SMILES)
1,0.5,"NC(=O)c1cccc(N)c1 [3-Aminobenzamide, reference compound]"

# Same assay, conditions: 0.1 µM, n = 3
row,inhibition at 0.1 µM [%],Structure (SMILES)
1,6.17,"NC(=O)c1cccc(N)c1 [3-Aminobenzamide, reference compound]"

# Same assay, conditions: 1 µM, n = 3
row,inhibition at 1 µM [%],Structure (SMILES)
1,23.3,"NC(=O)c1cccc(N)c1 [3-Aminobenzamide, reference compound]"

# Same assay, conditions: 10 µM, n = 3
row,inhibition at 10 µM [%],Structure (SMILES)
1,56.6,"NC(=O)c1cccc(N)c1 [3-Aminobenzamide, reference compound]"

# Same assay, conditions: 100 µM, n = 3
row,inhibition at 100 µM [%],Structure (SMILES)
1,85.7,"NC(=O)c1cccc(N)c1 [3-Aminobenzamide, reference compound]"

# System: not given
# Experiment: not given
# Conditions: not given
row,melting point [°C],Structure (SMILES)
1,128 to 130,"Cc1c(-c2cccc(-c3nnc(-c4ccc5c(c4)OCCO5)o3)c2)ccnc1F [5t, 2-(2,3-Dihydrobenzo[b][1,4]dioxin-6-yl)-5-(3-(2-fluoro-3-methylpyridin-4-yl)phenyl)-1,3,4-oxadiazole]"
2,90 to 92,"COc1ccc(Cc2nnc(-c3cccc(-c4cncnc4)c3)o2)cc1 [compound 5g, 2-(4-Methoxybenzyl)-5-(3-(pyrimidin-5-yl)phenyl)-1,3,4-oxadiazole]"
3,160 to 162,"FC(F)(F)c1ccc(-c2cccc(-c3nnc(-c4ccc5c(c4)OCCO5)o3)c2)cc1 [5b, 2-(2,3-Dihydrobenzo[b][1,4]dioxin-6-yl)-5-(4′-(trifluoromethyl)-[1,1′-biphenyl]-3-yl)-1,3,4-oxadiazole]"
4,98 to 100,"COc1ccc(Cc2nnc(-c3cccc(-c4cncnc4)c3)o2)cc1OC [compound 5h, 2-(3,4-Dimethoxybenzyl)-5-(3-(pyrimidin-5-yl)phenyl)-1,3,4-oxadiazole]"
5,78 to 80,"COc1ccc(Cc2nnc(-c3cccc(-c4cccnc4)c3)o2)cc1OC [compound 5m, 2-(3,4-Dimethoxybenzyl)-5-(3-(pyridin-3-yl)phenyl)-1,3,4-oxadiazole]"
6,190 to 192,"c1cc(-c2cncnc2)cc(-c2nnc(-c3ccc4c(c3)OCCO4)o2)c1 [5i, 2-(2,3-Dihydrobenzo[b][1,4]dioxin-6-yl)-5-(3-(pyrimidin-5-yl)phenyl)-1,3,4-oxadiazole]"
7,86 to 88,"COc1ccc(Cc2nnc(-c3cccc(-c4cnc(F)c(C)c4)c3)o2)cc1 [compound 5o, 2-(3-(6-Fluoro-5-methylpyridin-3-yl)phenyl)-5-(4-methoxybenzyl)-1,3,4-oxadiazole]"
8,91 to 93,"COc1ccc(Cc2nnc(-c3cccc(-c4cnc(F)c(C)c4)c3)o2)cc1OC [compound 5p, 2-(3,4-Dimethoxybenzyl)-5-(3-(6-fluoro-5-methylpyridin-3-yl)phenyl)-1,3,4-oxadiazole]"
9,138 to 140,"c1cncc(-c2cccc(-c3nnc(-c4ccc5c(c4)OCCO5)o3)c2)c1 [5n, 2-(2,3-Dihydrobenzo[b][1,4]dioxin-6-yl)-5-(3-(pyridin-3-yl)phenyl)-1,3,4-oxadiazole]"
10,90 to 92,"COc1ccc(Cc2nnc(-c3cccc(-c4cncc(C)c4C)c3)o2)cc1OC [compound 5j, 2-(3,4-Dimethoxybenzyl)-5-(3-(4,5-dimethylpyridin-3-yl)phenyl)-1,3,4-oxadiazole]"
11,194 to 196,"c1cc(-c2ccncc2)cc(-c2nnc(-c3ccc4c(c3)OCCO4)o2)c1 [5f, 2-(2,3-Dihydrobenzo[b][1,4]dioxin-6-yl)-5-(3-(pyridin-4-yl)phenyl)-1,3,4-oxadiazole]"
12,94 to 96,"COc1ccc(Cc2nnc(-c3cccc(-c4ccnc(F)c4C)c3)o2)cc1 [compound 5r, 2-(3-(2-Fluoro-3-methylpyridin-4-yl)phenyl)-5-(4-methoxybenzyl)-1,3,4-oxadiazole]"
13,186 to 188,"O=C(NC1CCCC1)c1cccc(-c2cccc(-c3nnc(-c4ccc5c(c4)OCCO5)o3)c2)c1 [5c, N-Cyclopentyl-3′-(5-(2,3-dihydrobenzo[b][1,4]dioxin-6-yl)-1,3,4-oxadiazol-2-yl)-[1,1′-biphenyl]-3-carboxamide]"
14,198 to 200,"Cc1cncc(-c2cccc(-c3nnc(-c4ccc5c(c4)OCCO5)o3)c2)c1C [5k, 2-(2,3-Dihydrobenzo[b][1,4]dioxin-6-yl)-5-(3-(4,5-dimethylpyridin-3-yl)phenyl)-1,3,4-oxadiazole]"
15,156 to 158,"c1cc(-c2nnc(-c3ccc4c(c3)OCCO4)o2)cc(-c2cccc3ccccc23)c1 [5e, 2-(2,3-Dihydrobenzo[b][1,4]dioxin-6-yl)-5-(3-(naphthalen-1-yl)phenyl)-1,3,4-oxadiazole]"
16,144 to 146,"Cc1cc(-c2cccc(-c3nnc(-c4ccc5c(c4)OCCO5)o3)c2)cnc1F [5q, 2-(2,3-Dihydrobenzo[b][1,4]dioxin-6-yl)-5-(3-(6-fluoro-5-methylpyridin-3-yl)phenyl)-1,3,4-oxadiazole]"
